# Data reported in patent publication US10117433B2 (priority 2011, dated 2018).
# Like-named read-outs stand apart in the source and are kept apart here.
# What was measured:
# [1] = test system: cereal aphid Sitobion avenae; conditions: in vivo
# [2] = test system: tomato moth (Lacanobia oleracea); assay type: in vivo
# Procedure: Effect of Transgenic Arabidopsis Expressing Fusion Proteins when Fed to Tomato Moth (Lacanobia oleracea)
# 20 neonate Lacanobia oleracea larvae were placed in pots (4 replicates, 5 larvae per pot) and allowed to feed on detached leaves of transgenic Arabidopsis plants. Survival was measured over the course of a 14-day period and weights were measured at days 11 and 14. Assays were repeated giving a total sample number of 40. Treatments used were control, GNA-expressing, ButalT/GNA fusion protein expressing, and GNA/ButalT fusion protein expressing. Two independent lines expressing the ButalT/GNA fusion protein (lines 40 and 45) were used.
# M. brassicae larvae [3] = test system: M. brassicae larvae; design: species or system Mamestra brassicae; conditions: in vivo
# M. brassicae larvae [4] = test system: M. brassicae larvae; design: species or system Mamestra brassicae; conditions: in vivo; remark: listed apart in the source
# [5] = test system: adult worker honeybees (Apismellifera); conditions: in vivo, po
# Honeybees = conditions: in vivo
# [6] = test system: central nerve chord of M. brassicae larvae; conditions: in vivo
# M. brassicae larvae [7] = test system: M. brassicae larvae; design: species or system Mamestra brassicae; conditions: in vivo; remark: listed apart in the source
# M. brassicae larvae [8] = test system: M. brassicae larvae; design: species or system Mamestra brassicae; conditions: in vivo; remark: listed apart in the source
# [9] = test system: cotton bollworm Heliothis armigera; conditions: in vivo; cited from earlier work
# Heliothis virescens = conditions: in vivo; cited from earlier work
# newborn mice = conditions: mouse, in vivo; cited from earlier work
# [10] = test system: vertebrate-muscle preparations; conditions: cited from earlier work
# [11] = test system: adult worker honeybees (Apismellifera); conditions: acute oral; cited from earlier work
# [12] = test system: adult worker honeybees (Apismellifera); conditions: acute contact; cited from earlier work
compound,measurement,setting,value
Galanthus nivalis agglutinin [GNA],survival compared to control treatments,[1],does not have a significant effect on the survival
same,survival,"[2]; first assay (FIG. 16), 14 days, ButalT/GNA line 40, GNA line 3, control 93%",90%
same,survival / larval mortality compared to controls,"[2]; neonate larvae, conclusions",no effect on larval mortality
same,reduction in mean weight,"[2]; second assay, days 11 and 14, vs control",approx. 50%
same,effect upon larvae when injected,M. brassicae larvae [3],no effect
same,average weight of surviving larvae reduced by,M. brassicae larvae [4],45%
same,survival (larvae remained),M. brassicae larvae [4],80%
same,LD50,[5],> 100 μg/bee
same,LD50 to honeybees,[5],greater than 100 ug/bee
same,effects on mortality,[5],smaller effects on mortality than acetamiprid
same,toxicity by injection,Honeybees,higher toxicity than FP5
same,bands in nerve tissue (anti-GNA Western blot),[6],not observed
same,presence in nerve chord and haemolymph samples (anti-GNA Western blot),[6],positive immunoreactivity
ω-ACTX-Hv1a,larval growth,M. brassicae larvae [7],no effect on larval growth
same,symptoms after injection of higher doses,M. brassicae larvae [3],displayed symptoms of paralysis
same,larval feeding / larval growth,M. brassicae larvae [8],no reduction in larval growth
same,oral activity,M. brassicae larvae [8]; po,not orally active
same,ED50,[9],3 nmol/g
same,PD50,Heliothis virescens,250 pmol/g
same,effect on newborn mice,newborn mice,harmless
same,effect on vertebrate-muscle preparations,[10],no effect
C/C(=N\C#N)N(C)Cc1ccc(Cl)nc1 [Acetamiprid],reported LD50,[11],14.5 ug/bee
same,reported LD50,[12],8.09 μg/bee
